How the values were obtained:
[1] = target: Dual specificity testis-specific protein kinase 1 (Homo sapiens, UniProt Q15569)
[2] = target: Cyclin-dependent kinase 7 (Homo sapiens, UniProt P50613)
[3] = target: Serine/threonine-protein kinase 24 (Homo sapiens, UniProt Q9Y6E0)
[4] = target: Serine/threonine-protein kinase tousled-like 2 (Homo sapiens, UniProt Q86UE8)
[5] = target: Ribosomal protein S6 kinase alpha-5 (Homo sapiens, UniProt O75582)
[6] = target: T1, Mitogen-activated protein kinase 12 (Homo sapiens, UniProt P53778)
T1 sequence (P53778 whole entry): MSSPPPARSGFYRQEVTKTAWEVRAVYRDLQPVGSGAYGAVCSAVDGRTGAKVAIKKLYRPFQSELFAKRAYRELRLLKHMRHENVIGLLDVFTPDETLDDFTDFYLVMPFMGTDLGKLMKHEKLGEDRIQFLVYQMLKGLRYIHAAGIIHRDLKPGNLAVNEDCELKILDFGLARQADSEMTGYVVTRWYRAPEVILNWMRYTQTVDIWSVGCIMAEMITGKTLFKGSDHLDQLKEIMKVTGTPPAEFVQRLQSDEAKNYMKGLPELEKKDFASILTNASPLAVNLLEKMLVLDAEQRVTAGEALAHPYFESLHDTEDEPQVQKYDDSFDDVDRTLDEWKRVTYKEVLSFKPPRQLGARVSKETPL

[7] = target: TGF-beta receptor type-2 (Homo sapiens, UniProt P37173)
Chain of TGF-beta receptor type-2 (P37173 whole entry): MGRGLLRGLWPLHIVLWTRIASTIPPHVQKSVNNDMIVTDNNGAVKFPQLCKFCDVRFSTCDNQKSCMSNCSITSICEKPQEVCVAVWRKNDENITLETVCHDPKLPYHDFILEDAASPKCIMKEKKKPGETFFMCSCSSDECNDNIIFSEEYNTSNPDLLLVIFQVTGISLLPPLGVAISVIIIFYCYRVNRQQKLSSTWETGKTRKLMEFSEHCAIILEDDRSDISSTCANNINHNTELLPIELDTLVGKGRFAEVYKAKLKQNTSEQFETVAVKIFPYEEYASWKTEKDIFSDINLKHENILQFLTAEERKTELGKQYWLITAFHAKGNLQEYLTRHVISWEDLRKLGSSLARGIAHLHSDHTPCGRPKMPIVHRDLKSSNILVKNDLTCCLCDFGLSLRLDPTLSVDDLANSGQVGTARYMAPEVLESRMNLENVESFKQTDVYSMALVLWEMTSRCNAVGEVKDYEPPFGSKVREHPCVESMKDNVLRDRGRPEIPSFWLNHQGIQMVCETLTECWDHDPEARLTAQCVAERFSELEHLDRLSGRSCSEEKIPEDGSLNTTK

[8] = target: T2, Ephrin type-B receptor 2 (Homo sapiens, UniProt P29323)
T2 sequence (P29323 whole entry): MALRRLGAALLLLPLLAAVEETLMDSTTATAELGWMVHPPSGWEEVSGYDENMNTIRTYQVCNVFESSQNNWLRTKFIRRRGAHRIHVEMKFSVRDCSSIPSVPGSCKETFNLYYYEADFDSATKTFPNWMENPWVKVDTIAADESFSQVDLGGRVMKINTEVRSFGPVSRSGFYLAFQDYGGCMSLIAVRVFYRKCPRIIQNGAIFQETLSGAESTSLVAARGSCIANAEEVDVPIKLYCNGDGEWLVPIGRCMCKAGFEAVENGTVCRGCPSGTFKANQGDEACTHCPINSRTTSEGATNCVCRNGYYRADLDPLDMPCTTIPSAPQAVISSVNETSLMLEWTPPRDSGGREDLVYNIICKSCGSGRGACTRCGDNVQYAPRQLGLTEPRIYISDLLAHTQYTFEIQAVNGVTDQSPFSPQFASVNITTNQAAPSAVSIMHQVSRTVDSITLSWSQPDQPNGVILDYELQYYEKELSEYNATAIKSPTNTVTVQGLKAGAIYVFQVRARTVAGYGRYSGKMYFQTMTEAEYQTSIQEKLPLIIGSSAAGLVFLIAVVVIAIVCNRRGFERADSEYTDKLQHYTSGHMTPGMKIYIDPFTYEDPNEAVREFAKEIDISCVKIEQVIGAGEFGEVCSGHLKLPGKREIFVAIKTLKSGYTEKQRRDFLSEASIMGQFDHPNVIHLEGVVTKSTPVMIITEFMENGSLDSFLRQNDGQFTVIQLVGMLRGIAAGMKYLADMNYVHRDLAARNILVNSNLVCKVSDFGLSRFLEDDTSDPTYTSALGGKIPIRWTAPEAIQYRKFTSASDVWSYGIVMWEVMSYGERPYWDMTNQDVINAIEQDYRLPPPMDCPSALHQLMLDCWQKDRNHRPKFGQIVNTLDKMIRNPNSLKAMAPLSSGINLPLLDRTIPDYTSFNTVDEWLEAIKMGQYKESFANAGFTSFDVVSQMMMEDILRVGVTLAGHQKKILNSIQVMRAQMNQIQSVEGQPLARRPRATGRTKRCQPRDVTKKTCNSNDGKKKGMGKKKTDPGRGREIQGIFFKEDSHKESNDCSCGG

[9] = target: High affinity nerve growth factor receptor (Homo sapiens, UniProt P04629)
[10] = target: Fibroblast growth factor receptor 4 (Homo sapiens, UniProt P22455)
Chain of Fibroblast growth factor receptor 4 (P22455 whole entry): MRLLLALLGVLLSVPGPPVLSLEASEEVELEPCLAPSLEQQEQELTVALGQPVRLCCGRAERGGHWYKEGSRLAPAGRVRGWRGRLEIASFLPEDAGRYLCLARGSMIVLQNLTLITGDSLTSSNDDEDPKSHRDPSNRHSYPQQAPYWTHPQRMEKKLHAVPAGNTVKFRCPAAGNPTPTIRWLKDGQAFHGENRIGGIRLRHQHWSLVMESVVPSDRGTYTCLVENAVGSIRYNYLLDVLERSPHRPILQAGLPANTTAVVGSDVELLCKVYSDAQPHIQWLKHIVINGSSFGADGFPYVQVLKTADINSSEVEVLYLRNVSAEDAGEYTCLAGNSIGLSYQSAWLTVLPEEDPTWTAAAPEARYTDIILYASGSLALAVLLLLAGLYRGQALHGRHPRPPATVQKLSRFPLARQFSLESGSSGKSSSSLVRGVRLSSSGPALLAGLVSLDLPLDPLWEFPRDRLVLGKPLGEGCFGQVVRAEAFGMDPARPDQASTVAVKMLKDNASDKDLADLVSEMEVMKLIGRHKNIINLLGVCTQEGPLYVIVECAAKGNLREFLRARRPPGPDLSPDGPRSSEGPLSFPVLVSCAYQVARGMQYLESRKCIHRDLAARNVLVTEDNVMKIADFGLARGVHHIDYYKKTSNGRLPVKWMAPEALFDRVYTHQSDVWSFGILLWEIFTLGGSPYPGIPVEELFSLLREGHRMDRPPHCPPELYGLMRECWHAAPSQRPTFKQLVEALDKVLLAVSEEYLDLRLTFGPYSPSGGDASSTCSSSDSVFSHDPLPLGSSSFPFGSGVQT

[11] = target: Protein kinase C theta type (Homo sapiens, UniProt Q04759)
[12] = target: T3, NUAK family SNF1-like kinase 2 (Homo sapiens, UniProt Q9H093)
T3 sequence (Q9H093 whole entry): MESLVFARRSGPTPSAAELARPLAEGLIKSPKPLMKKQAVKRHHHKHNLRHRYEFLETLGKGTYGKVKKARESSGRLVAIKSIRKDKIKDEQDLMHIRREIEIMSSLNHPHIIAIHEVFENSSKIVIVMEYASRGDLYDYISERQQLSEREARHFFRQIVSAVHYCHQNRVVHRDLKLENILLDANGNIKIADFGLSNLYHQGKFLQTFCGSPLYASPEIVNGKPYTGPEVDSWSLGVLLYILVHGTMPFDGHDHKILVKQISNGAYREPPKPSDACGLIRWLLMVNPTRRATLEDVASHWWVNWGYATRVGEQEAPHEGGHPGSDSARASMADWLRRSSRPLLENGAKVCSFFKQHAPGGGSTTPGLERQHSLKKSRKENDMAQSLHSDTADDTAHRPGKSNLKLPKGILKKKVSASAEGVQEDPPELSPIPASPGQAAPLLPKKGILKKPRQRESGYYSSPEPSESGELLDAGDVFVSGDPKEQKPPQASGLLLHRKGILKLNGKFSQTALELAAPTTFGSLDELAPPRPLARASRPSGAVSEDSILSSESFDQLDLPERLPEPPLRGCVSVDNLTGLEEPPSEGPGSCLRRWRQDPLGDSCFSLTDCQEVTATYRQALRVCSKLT

[13] = target: Phosphatidylinositol 4,5-bisphosphate 3-kinase catalytic subunit alpha isoform (Homo sapiens, UniProt P42336)
Chain of Phosphatidylinositol 4,5-bisphosphate 3-kinase catalytic subunit alpha isoform (P42336 whole entry, canonical isoform): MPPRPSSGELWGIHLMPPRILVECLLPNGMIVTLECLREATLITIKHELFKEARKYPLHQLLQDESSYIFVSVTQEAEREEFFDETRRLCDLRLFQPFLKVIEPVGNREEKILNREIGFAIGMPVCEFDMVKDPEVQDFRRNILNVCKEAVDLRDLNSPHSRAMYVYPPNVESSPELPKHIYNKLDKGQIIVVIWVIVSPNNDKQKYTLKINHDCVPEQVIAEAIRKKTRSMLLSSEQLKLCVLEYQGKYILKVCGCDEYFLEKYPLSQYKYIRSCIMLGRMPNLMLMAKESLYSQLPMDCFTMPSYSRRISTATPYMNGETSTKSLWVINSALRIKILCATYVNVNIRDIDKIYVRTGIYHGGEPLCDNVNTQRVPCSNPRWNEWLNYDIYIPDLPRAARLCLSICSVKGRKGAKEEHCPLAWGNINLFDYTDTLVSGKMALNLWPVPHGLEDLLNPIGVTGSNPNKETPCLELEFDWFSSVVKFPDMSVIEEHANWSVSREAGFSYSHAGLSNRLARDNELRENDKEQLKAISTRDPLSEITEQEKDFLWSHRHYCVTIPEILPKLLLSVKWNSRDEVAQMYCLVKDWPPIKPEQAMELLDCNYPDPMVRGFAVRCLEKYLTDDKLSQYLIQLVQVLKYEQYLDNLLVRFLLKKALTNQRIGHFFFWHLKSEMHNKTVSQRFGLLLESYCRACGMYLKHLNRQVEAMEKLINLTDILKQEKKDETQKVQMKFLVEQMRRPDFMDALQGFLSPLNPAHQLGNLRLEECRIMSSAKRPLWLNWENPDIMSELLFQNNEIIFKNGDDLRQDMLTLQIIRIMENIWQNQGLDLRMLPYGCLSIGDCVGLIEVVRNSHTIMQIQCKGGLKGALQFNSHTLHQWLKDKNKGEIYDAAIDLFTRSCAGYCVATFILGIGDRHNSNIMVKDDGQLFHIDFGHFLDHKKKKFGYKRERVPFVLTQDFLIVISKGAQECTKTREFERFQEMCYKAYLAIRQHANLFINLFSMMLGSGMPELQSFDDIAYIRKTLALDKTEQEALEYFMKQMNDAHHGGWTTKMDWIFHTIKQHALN

[14] = target: Protein-tyrosine kinase 2-beta (Homo sapiens, UniProt Q14289)

Chain of Serine/threonine-protein kinase 24 (Q9Y6E0 whole entry): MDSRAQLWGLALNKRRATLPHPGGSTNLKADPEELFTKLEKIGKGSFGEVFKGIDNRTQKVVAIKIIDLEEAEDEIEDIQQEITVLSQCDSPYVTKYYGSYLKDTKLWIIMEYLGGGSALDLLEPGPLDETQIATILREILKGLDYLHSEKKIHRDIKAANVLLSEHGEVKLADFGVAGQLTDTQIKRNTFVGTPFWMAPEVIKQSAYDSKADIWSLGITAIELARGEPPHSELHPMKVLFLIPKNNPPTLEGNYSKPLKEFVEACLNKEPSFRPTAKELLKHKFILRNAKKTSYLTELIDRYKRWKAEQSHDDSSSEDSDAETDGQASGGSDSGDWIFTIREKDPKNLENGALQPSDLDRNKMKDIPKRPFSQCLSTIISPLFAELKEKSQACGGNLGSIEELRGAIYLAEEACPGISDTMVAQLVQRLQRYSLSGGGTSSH
Chain of Ribosomal protein S6 kinase alpha-5 (O75582 whole entry): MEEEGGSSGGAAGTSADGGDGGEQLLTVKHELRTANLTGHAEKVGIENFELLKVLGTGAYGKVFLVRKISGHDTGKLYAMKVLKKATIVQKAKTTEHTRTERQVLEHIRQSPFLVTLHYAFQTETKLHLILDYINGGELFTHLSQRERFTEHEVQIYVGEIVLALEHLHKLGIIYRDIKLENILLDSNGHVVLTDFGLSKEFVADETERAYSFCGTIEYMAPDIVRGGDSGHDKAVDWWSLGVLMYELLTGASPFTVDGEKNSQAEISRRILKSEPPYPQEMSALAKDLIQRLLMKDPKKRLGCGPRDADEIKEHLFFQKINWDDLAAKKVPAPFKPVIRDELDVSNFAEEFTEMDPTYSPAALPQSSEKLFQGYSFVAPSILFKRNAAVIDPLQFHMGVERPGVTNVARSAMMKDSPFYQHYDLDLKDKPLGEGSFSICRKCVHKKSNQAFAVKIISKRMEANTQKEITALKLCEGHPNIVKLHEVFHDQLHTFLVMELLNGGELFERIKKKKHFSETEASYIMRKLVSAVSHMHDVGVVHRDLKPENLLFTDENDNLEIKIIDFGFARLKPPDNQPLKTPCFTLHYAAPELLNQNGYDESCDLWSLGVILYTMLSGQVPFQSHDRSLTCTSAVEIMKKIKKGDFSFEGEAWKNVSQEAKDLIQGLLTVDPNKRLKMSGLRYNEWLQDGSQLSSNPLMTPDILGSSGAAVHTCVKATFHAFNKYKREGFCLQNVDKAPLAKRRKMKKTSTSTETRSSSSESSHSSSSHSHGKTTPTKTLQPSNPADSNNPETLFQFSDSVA
Chain of Serine/threonine-protein kinase tousled-like 2 (Q86UE8 whole entry): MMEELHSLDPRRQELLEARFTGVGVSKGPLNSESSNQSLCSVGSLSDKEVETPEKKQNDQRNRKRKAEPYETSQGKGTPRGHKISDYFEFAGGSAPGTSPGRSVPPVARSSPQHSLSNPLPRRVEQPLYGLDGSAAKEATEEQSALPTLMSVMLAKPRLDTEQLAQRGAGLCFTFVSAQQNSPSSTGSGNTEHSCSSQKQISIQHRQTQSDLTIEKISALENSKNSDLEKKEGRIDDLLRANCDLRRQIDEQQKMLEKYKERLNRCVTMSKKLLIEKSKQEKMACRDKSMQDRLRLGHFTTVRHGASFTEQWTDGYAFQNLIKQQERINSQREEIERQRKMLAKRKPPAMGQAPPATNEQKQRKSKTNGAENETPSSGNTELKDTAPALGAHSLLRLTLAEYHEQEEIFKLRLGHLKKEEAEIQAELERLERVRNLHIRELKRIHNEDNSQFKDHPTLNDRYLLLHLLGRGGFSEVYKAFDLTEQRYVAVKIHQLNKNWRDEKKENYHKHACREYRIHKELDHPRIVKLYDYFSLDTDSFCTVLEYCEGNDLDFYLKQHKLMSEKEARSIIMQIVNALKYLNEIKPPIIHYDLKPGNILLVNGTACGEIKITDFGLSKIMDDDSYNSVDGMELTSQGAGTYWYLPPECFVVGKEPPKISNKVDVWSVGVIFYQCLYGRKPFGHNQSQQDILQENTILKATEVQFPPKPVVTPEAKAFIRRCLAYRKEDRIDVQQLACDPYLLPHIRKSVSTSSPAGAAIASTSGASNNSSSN
Chain of Cyclin-dependent kinase 7 (P50613 whole entry): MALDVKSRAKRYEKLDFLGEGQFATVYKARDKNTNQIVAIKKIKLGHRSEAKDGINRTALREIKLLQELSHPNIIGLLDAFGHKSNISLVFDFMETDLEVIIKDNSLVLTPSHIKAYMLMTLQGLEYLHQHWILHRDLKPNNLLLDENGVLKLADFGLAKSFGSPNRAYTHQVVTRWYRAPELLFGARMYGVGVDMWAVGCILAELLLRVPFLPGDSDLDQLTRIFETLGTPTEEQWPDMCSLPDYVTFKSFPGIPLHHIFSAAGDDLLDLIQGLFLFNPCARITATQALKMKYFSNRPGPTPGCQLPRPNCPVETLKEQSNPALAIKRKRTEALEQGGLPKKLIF

Structure (SMILES) | Kd [1] [µM] | Kd [2] [µM] | Kd [3] [µM] | Kd [4] [µM] | Kd [5] [µM] | Kd [6] [µM] | Kd [7] [µM] | Kd [8] [µM] | Kd [9] [µM] | Kd [10] [µM] | Kd [11] [µM] | Kd [12] [µM] | Kd [13] [µM] | Kd [14] [µM]
CCOc1cc2ncc(C#N)c(Nc3ccc(F)c(Cl)c3)c2cc1NC(=O)/C=C/CN(C)C [PELITINIB] | > 10 | > 10 | 2.1 | > 10 | > 10 | > 10 | > 10 | > 10 | > 10 | > 10 | > 10 | 2.7 | > 10 | > 10
COCC(=O)NC/C=C/c1ccc2ncnc(Nc3ccc(Oc4ccc(C)nc4)c(C)c3)c2c1 [CP-724714] | > 10 | > 10 | > 10 | > 10 | > 10 | > 10 | > 10 | > 10 | > 10 | > 10 | > 10 | > 10 | – | > 10
NC(=O)c1ccc(-c2nc(-c3ccc4c(c3)OCO4)c(-c3ccccn3)[nH]2)cc1 [SB-431542] | – | > 10 | > 10 | > 10 | > 10 | > 10 | – | > 10 | > 10 | > 10 | > 10 | > 10 | > 10 | > 10
Nc1nc(Nc2ccc(S(N)(=O)=O)cc2)nn1C(=O)c1c(F)cccc1F [JNJ-7706621] | 3.1 | – | – | – | > 10 | > 10 | > 10 | > 10 | – | > 10 | – | 0.026 | > 10 | > 10
Oc1ccc(-c2nc(-c3ccncc3)c(-c3ccc(F)cc3)[nH]2)cc1 [SB-202190] | > 10 | > 10 | > 10 | > 10 | > 10 | – | > 10 | > 10 | > 10 | > 10 | > 10 | > 10 | > 10 | > 10
CCN1CCN(Cc2ccc(NC(=O)Nc3ccc(Oc4cc(NC)ncn4)cc3)cc2C(F)(F)F)CC1 [AST-487] | – | – | > 10 | – | – | – | – | – | – | – | – | – | – | –

From ChEMBL document CHEMBL1150977, “A quantitative analysis of kinase inhibitor selectivity” (Nat Biotechnol, 2008)
